Literature values in patent US20130224268A1, “TOPICAL DELIVERY OF HORMONAL AND NON HORMONAL NANO FORMULATIONS, METHODS OF MAKING AND USING THE SAME” (NEWGEN BIOPHARMA CORP., priority 2012, published 2013).

System: hydroxyproline, a major constituent amino acid in collagen
Conditions: topical estradiol treatment

SMILES: C[C@]12CC[C@@H]3c4ccc(O)cc4CC[C@H]3[C@@H]1CC[C@@H]2O [estradiol, (17β)-estra-1,3,5(10)-triene-3,17-diol]
- increase in hydroxyproline: 38%
